PMC10610289, “Novel Baicalein-Derived Inhibitors of Plasmodium falciparum” (Pathogens, 2023)

Tests used:
[1] = tested on: Dd2 DDD107498 (PfeEF2 Y186N); test: Cross-resistance panel, Dd2 DDD107498; format: cell-based, Plasmodium falciparum
Method: (§1) Parasite lines used in the study were P. falciparum 3D7 (Pf3D7 Chloroquine-sensitive) and Plasmodium falciparum K1 (PfK1 Chloroquine-resistant) sourced from the Malaria Research and Reference Reagent Resource Center (MR4), ATCC, Manassas, VA, USA. FNDR-10132 was tested against a cross-resistance panel at Swiss TPH, Allschwil, Switzerland.

[2] = tested on: Dd2 ELQ300 (PfcytB Ile22Leu); test: Cross-resistance panel, Dd2 ELQ300; format: cell-based, Plasmodium falciparum
Method: as §1

[3] = Microsomal stability assay; format: in vitro ADME, mouse; conditions: 37 °C
Method: Dipotassium hydrogen phosphate, Potassium dihydrogen phosphate, and formic acid were obtained from Merck, Rahway, NJ, USA. Methanol–acetonitrile was procured from Biosolve Chimie, Dieuze, France. Mouse liver microsomes, 20 mg/mL, were received from a third-party vendor in India. Imipramine HCl (catalog no. I0971) and Carbamazepine (catalog no. O0363) were procured from TCI, Gurugram, India. ß-NADPH (product code-99197) was procured from Sisco Research Laboratories, Mumbai, India.
The in vitro metabolic stability was determined in mouse liver microsomes. To prepare a mouse liver microsomes (MLM) homogenate, 100 µL of microsomes was resuspended in 100 mM phosphate buffer (0.607 g K2HPO4 and 0.212 g KH2PO4 dissolved in 50 mL of de-ionized water), achieving a working concentration of 0.625 mg/mL. Positive control (Imipramine) and test compounds (FNDR-10132, 10136, 10139, and 10999) were spiked individually into the MLM homogenate at a final concentration of 1 µm. To pre-incubate, they were placed in a water bath at 37 °C for 5 min. At least 30 µL was collected in triplicates (0 min samples), and the reaction was quenched using 90 µL of acetonitrile, which contained 500 ng/mL of Carbamazepine as an internal standard. Nicotinamide Adenine Dinucleotide Phosphate (NADPH) in phosphate buffer was added to the remaining MLM at a 1 mM final concentration and further incubated at 37 °C. At the indicated time intervals, 30 µL aliquots were sampled in triplicates, and the reaction was quenched with acetonitrile containing Carbamazepine as the internal standard. The samples were centrifugated for 10 min at 13,000 rpm, and the supernatant was separated for further analysis.
The analytical method for microsomal stability and protein binding assay is as follows: Chromatographic elution was achieved following isocratic flow on an X-Terra MS C18 50 × 4.6 mm, 2.5 µm, Waters, USA, maintained at 40 °C. The mobile phase contained aqueous 0.1% formic acid in water in solvent A and acetonitrile acidified with 0.1% formic acid in solvent B delivered at 0.300 mL/min. The flow was 15% from solvent A and 85% from solvent B for 4.5 min. A total of 7 μL of the sample was injected for the assay. […] Detection was performed through multiple reaction monitoring (MRM). The ion transitions are as follows: Imipramine, FNDR-10132, FNDR-10136, FNDR-10139, FNDR-10999, and IS at m/z 281.1→86.0, 355.2→115.1, 354.0→298.0, 350.0→186.1, 349→305.2, and m/z 237.0→194.0, respectively. An optimized cone voltage and collision energy were used to ionize the compounds. The MS parameters follow as follows: cone gas flow 50 (L/h); ion source temperature 150 °C; desolvation gas flow 900 (L/h); desolvation temperature 400 °C; and collision gas flow 0.10 (mL/min).

CCCCCCc1ccc(-c2cc(=O)c3c(O)c(O)c(O)cc3o2)cc1 [FNDR-10132]
IC50 ([1]; Plasmodium falciparum, DD2): 211 nM | Fold shift IC50 rel. Dd2 ([1]; strain Dd2 DDD107498): 0.6 | IC50 ([2]; Plasmodium falciparum, DD2): 238 nM | Fold shift IC50 rel. Dd2 ([2]; strain Dd2 ELQ300): 0.7 | stability in mouse liver microsomes (in words) ([3]; 60 min, ß-NADPH): moderate stability | Microsomal Stability (Mouse) ([3]; at 30 min, 1 µM, NADPH): 99%
